This passage reports IC50 results from patent publication US20130005728A1, “SUBSTITUTED PYRIMIDINES AS PROSTAGLANDIN D2 RECEPTOR ANTAGONISTS” (AVENTIS PHARMACEUTICALS INC., priority 2010, published 2013).

Each structure is given as a SMILES string. Structures can show the parent of a compound that is named as a salt.

The IC50 is the concentration needed to halve the response being measured.

The first experiment deals with T1, human prostaglandin D2 receptor (DP) (DP1) (Homo sapiens, UniProt Q13258).
T1 construct: endogenous in cells; host or cells: human platelets in platelet-rich plasma from donor blood
T1 sequence (Q13258 1-359): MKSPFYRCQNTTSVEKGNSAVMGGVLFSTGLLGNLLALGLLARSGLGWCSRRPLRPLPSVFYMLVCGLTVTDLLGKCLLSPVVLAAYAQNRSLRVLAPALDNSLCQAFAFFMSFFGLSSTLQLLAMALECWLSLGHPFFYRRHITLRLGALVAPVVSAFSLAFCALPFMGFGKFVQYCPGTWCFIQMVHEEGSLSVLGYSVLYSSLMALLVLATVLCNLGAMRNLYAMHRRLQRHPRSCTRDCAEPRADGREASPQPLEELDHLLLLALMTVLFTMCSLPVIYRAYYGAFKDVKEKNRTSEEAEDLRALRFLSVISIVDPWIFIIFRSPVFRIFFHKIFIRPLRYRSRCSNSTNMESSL
The experiment can be described thus: Antagonist activity on BW245C-induced cAMP accumulation in human platelet rich plasma (hPRP) by HTRF cAMP assay. The experiment is classed as cell-based. The following applies: inhibition of BW245C (25 nM)-induced cAMP accumulation in human platelet rich plasma; compound tested as HCl salt; read-out: hPRP IC50 (as HCl salt). The text has this: Assessment of Antagonist Activities of Compounds on BW245C-induced cAMP Accumulation in Human Platelet Rich Plasma (hPRP) by HTRF cAMP Assay
The purpose of the assay is to assess compound antagonist activity at the human prostaglandin D2 receptor (DP) (DP1) in the presence of plasma proteins. DP is a Gs-protein coupled receptor, the activation of which induces cAMP accumulation. BW245C is a DP selective agonist. Therefore, by measuring inhibition of BW245C-induced 3′-5′-cyclic adenosine monophosphate (cAMP) accumulation in human platelet-rich plasma (PRP), the assay enables us to identify or confirm antagonist compounds at the human DP and/or IP receptors.
The principle of the assay is based on HTRF technology (Homogeneous Time-Resolved Fluorescence). The method is a competitive immunoassay between native cAMP produced by cells and the tracer cAMP labeled with the dye d2. The tracer is visualized by a monoclonal antibody anti-cAMP labeled with cryptate. The specific signal (i.e. energy transfer) is inversely related to the concentration of cAMP in the standards or samples. The assay was carried out using the cAMP HiRange HTRF kit from Cisbio (catalog number 62AM6PEB, 888-963-4567).
Preparation of Human Platelet Rich Plasma (hPRP): Human blood was obtained from sanofi-aventis on-site blood donor panel. The blood was gently transferred from the blood bag into a 50 ml centrifuge tube and centrifuged at 223×g (1000 rpm) for 15 minutes without break. The top layer (PRP) was aspirated slowly and transferred to a 250 ml centrifuge tube. The PRP was placed in the cell culture hood for approximately 30 minutes before use.
Preparation of IBMX: IBMX is a phosphodiesterase (PDE) inhibitor and is included in the assay to prevent breakdown of cAMP. 1M IBMX stock was prepared in DMSO. 20 μL of 1M IBMX stock was then added into 30 μL of DMSO to obtain a 400 mM IBMX DMSO solution. This was further diluted 1:50 in 0.9% sodium chloride to obtain an 8 mM IBMX working solution. The solution was sonicated for 60 minutes before use.
Preparation of BW245C: 10 mM BW245C stock was prepared in DMSO and aliquots were stored at −80° C. On the day of the assay, 10 mM BW245C stock was diluted 1 to 400 in DMSO to make a 25 μM solution. 100 μL of the 25 μM BW245C solution was added to 4900 μL of 0.9% sodium chloride to make a 500 nM working solution.
Dilution of compounds: 10 mM compound DMSO stock solutions were serially diluted 1:3 in DMSO in a 96-well plate to achieve 11 different concentrations ranging from 10 mM to 0.00017 mM. A further 1:20 dilution in 0.9% sodium chloride solution was carried out for each concentration to obtain working concentrations ranging from 500 μM to 0.0085 μM (11 points) for each compound. For positive and negative controls, DMSO (without compound) was diluted 1:20 in 0.9% sodium chloride solution.
Preparation of cAMP standards, cAMP-d2 and anti-cAMP cryptate (all in the assay kit): cAMP standard was reconstituted by adding distilled water according to the manufacturer's instruction (456 μL of water usually). The reconstituted cAMP standard was serially diluted 1:4 in 0.9% sodium chloride solution to achieve 11 different concentrations. cAMP-d2 was reconstituted by adding 2 mL of distilled water and then further diluting it in 8 mL of lysis buffer (in the kit). Anti-cAMP cryptate was reconstituted by adding 1.1 mL of distilled water and then further diluting it in 4.4 mL of lysis buffer.
Assay Procedure: In the assay, each compound was run in duplicate. The final assay volume was 50 μl in each well.
In the assay plate, 42 μL of platelet rich plasma (PRP) was added in each well. This was followed by the addition in each well of 2.5 μL of 8 mM IBMX (final concentration 400 μM) and 3 μL of diluted compound at varying concentrations (final concentrations ranging from 30,000 nM to 0.51 nM, 11 points for each compound). In the positive and negative control wells, 3 μL of diluted DMSO solution was added instead of compound. […]
As for `COc1nc(NCCc2ccc(OC(F)(F)F)cc2)cc(N2CCCCC2C(=O)O)n1` (stereo not drawn) [Example 3, 1-{2-Methoxy-6-[2-(4-trifluoromethoxy-phenyl)-ethylamino]-pyrimidin-4-yl}-piperidine-2-carboxylic acid trifluoroacetate], the IC50 was 885 nM.
Take `COc1nc(NCCc2ccc(OC(F)(F)F)cc2)cc(N2CCOCC2)n1` [Example 5, (2-Methoxy-6-morpholin-4-yl-pyrimidin-4-yl)-[2-(4-trifluoromethoxy-phenyl)-ethyl]-amine]: the IC50 is 1180 nM.

Still in this experiment, the particulars now being: inhibition of BW245C (25 nM)-induced cAMP accumulation in human platelet rich plasma; read-out: hPRP IC50.
Regarding `COc1nc(NCCc2ccc(OC(F)(F)F)cc2)cc(N2C[C@@H](C(=O)O)[C@H](c3ccccc3OC)C2)n1` (racemic) [Example 15, (±)-trans-4-(2-Methoxy-phenyl)-1-{2-methoxy-6-[2-(4-trifluoromethoxy-phenyl)-ethylamino]-pyrimidin-4-yl}-pyrrolidine-3-carboxylic acid], the concentration for half-maximal inhibition (IC50) was determined as 436 nM.
Take `COc1nc(NCCc2ccc(OC(F)(F)F)cc2)cc(N2CCOC(C(=O)O)C2)n1` (stereo not drawn) [Example 1, 4-{2-Methoxy-6-[2-(4-trifluoromethoxy-phenyl)-ethylamino]-pyrimidin-4-yl}-morpholine-2-carboxylic acid trifluoroacetate]: the IC50 is 10 nM.
On to `COc1nc(NCCc2ccc(OC(F)(F)F)cc2)cc(N2CCN(CC(=O)O)CC2)n1` [Example 2, (4-{2-Methoxy-6-[2-(4-trifluoromethoxy-phenyl)-ethylamino]-pyrimidin-4-yl}-piperazin-1-yl)-acetic acid tristrifluoroacetate], for which the concentration for half-maximal inhibition (IC50) was 368 nM.
For the molecule `COc1nc(NCCc2ccc(OC(F)(F)F)cc2)cc(N2CCCCC2CC(=O)O)n1` (stereo not drawn) [Example 4, (1-{2-Methoxy-6-[2-(4-trifluoromethoxy-phenyl)-ethylamino]-pyrimidin-4-yl}-piperidin-2-yl)-acetic acid trifluoroacetate], the 50% inhibitory concentration (IC50) was found to be 32 nM.
On the same count and under the same terms, next, `CCOC(=O)N1CCN(c2cc(NCCc3ccc(OC(F)(F)F)cc3)nc(OC)n2)CC1` [Example 6]: 609 nM.
Regarding `COc1nc(NCCc2ccc(OC(F)(F)F)cc2)cc(N2CCC(C)(C(=O)O)C2)n1` (stereo not drawn) [Example 7, 1-{2-Methoxy-6-[2-(4-trifluoromethoxy-phenyl)-ethylamino]-pyrimidin-4-yl}-3-methyl-pyrrolidine-3-carboxylic acid], the concentration for half-maximal inhibition (IC50) was determined as 317 nM.
As for `COc1nc(NCCc2ccc(OC(F)(F)F)cc2)cc(N2C[C@@H](C(=O)O)[C@H](C(C)C)C2)n1` [Example 8, (3S,4S)-4-Isopropyl-1-{2-methoxy-6-[2-(4-trifluoromethoxy-phenyl)-ethylamino]-pyrimidin-4-yl}-pyrrolidine-3-carboxylic acid], the IC50 turned out to be 376 nM.
Turning to `COc1nc(NCCc2ccc(OC(F)(F)F)cc2)cc(N2CCC(C(=O)O)C2)n1` (stereo not drawn) [Example 9, 1-{2-Methoxy-6-[2-(4-trifluoromethoxy-phenyl)-ethylamino]-pyrimidin-4-yl}-pyrrolidine-3-carboxylic acid], the concentration for half-maximal inhibition (IC50) was 575 nM.
Regarding `COc1nc(NCCc2ccc(OC(F)(F)F)cc2)cc(N2C[C@H](C(=O)O)[C@@H](c3ccccc3)C2)n1` [Example 10, (3R,4S)-1-{2-Methoxy-6-[2-(4-trifluoromethoxy-phenyl)-ethylamino]-pyrimidin-4-yl}-4-phenyl-pyrrolidine-3-carboxylic acid], the IC50 was determined as 28 nM.
Consider `COc1ccc([C@H]2CN(c3cc(NCCc4ccc(OC(F)(F)F)cc4)nc(OC)n3)C[C@@H]2C(=O)O)cc1` [Example 11, (3R,4S)-4-(4-Methoxy-phenyl)-1-{2-methoxy-6-[2-(4-trifluoromethoxy-phenyl)-ethylamino]-pyrimidin-4-yl}-pyrrolidine-3-carboxylic acid], for which the IC50 was found to be 409 nM.
For `COc1nc(NCCc2ccc(OC(F)(F)F)cc2)cc(N2CCc3ccccc3C2)n1` [Example 12, [6-(3,4-Dihydro-1H-isoquinolin-2-yl)-2-methoxy-pyrimidin-4-yl]-[2-(4-trifluoromethoxy-phenyl)-ethyl]-amine trifluoroacetic acid salt], the IC50 came to 1220 nM.
On the same count and under the same terms, next, `COc1nc(NCCc2ccc(OC(F)(F)F)cc2)cc(N2CCN(c3ccccc3)CC2)n1` [Example 13, [2-Methoxy-6-(4-phenyl-piperazin-1-yl)-pyrimidin-4-yl]-[2-(4-trifluoromethoxy-phenyl)-ethyl]-amine]: 397 nM.
The same measure, in the same setting: next, `COc1nc(NCCc2ccc(OC(F)(F)F)cc2)cc(N2CC[C@H](CC(=O)O)C2)n1` [Example 14, ((R)-1-{2-Methoxy-6-[2-(4-trifluoromethoxy-phenyl)-ethylamino]-pyrimidin-4-yl}-pyrrolidin-3-yl)-acetic acid]: 713 nM.
